# PubChem BioAssay AID1919006 (Molecular Pharmacology Branch, DTP, NCI, 2023)
# “And” between values parts separate entries of the source, which are not always exact repeats. Equal entries are not always repeated.
# System: 885512-296-R-J2-PDC complex spheroid growth, % test/control
# Assay: Anticancer human tumor 885512-296-R-J2-PDC patient-derived breast carcinoma cell line growth inhibition [AhR]
# Settings: for viability, T/C: stronger effect = lower value
# Excerpt: Multicellular complex tumor spheroid response to aryl hydrocarbon receptor antagonists in combination with a variety of drugs and investigational agents in selected tumor cell lines
# The current study was undertaken to assess response to aryl hydrocarbon receptor antagonists in combination with standard-of-care drugs and investigational agents in solid tumor complex spheroid models. Complex spheroids include a stromal component modeled by human endothelial cells (HUVEC) and fibroblasts modeled by human mesenchymal stem cells (MSCs). The concentration ranges selected for each drug and investigational agent were based upon clinically achievable concentrations if the clinical Cmax of the agent was known.
# Compounds. The drugs and investigational agents: BAY 2416964 (NSC825713), GNF351 (NSC835774), CH-223191 (NSC835775), CPI-455 (NSC825282), aza-TdCyd (NSC777586), decitabine (NSC127716), belinostat (NSC758774), entinostat (NSC756642), pevonedistat (NSC761192), tazemetostat (NSC777109), talazoparib (NSC765396), olaparib (NSC753686), selinexor (NSC780203), nedisertib (M3814, NSC802822), bortezomib (NSC756655), venetoclax (NSC766270), doxorubicin (NSC123127), elimusertib (BAY189344, NSC800525), ceralasertib (AZD6738, NSC777638), TAK-243 (NSC785004), alisertib (NSC759677), etoposide (NSC141540), topotecan (NSC609699), eribulin (NSC707389), gemcitabine (NSC613327), carboplatin (NSC241240), cisplatin (NSC119875), and SN-38 (NSC673596) were obtained from the National Cancer Institute (NCI) Developmental Therapeutics Program Chemical Repository (32). The FDA-approved anticancer drug set is available from the Developmental Therapeutics Program at https://dtp.cancer.gov/organization/dscb/obtaining/available plates.htm. […] The stock solutions were prepared in dimethyl sulfoxide (DMSO, Sigma-Aldrich, St. Louis, MO, cat. D2650), except for the platinum compounds which were prepared in saline (Quality Biological, Gaithersburg, MD, cat. 114-055-101), at 800-fold the tested concentration and stored at -70 degrees C prior to their use. All drugs and investigational agents were tested over a range starting from a high concentration at or near the clinical Cmax and decreasing in half-log increments. If the clinical Cmax for an agent had not been determined, the highest concentration tested was 10 microM (Table 1).
# Cell Culture. All cells were maintained in an incubator at 37 degrees C and 5% CO2 with 95% humidity. The PDC lines were cultured according to standard operating procedures established by the NCI PDMR (https://pdmr.cancer.gov). Briefly, all PDCs were thawed and cultured in Matrigel-coated flasks prepared with a working solution of 1X Ham's F-12 nutrient mix, without supplementation (Invitrogen, Waltham, MA, cat. 11765054), 100 U/mL penicillin-streptomycin (Invitrogen, cat. 15140122), and 2.5% Matrigel (Corning Inc., Corning, NY, cat. 354248) for the first three passages. All PDCs were cultured in complete DMEM/F-12 media containing advanced DMEM/F-12 (Invitrogen, cat. 12634028), 4.9% defined fetal bovine serum, heat inactivated (HyClone Laboratories Inc., Logan, UT, cat. SH30070.03HI), 389 ng/mL hydrocortisone (Sigma-Aldrich, cat. H4001), 9.7 ng/mL human EGF recombinant protein (Invitrogen, cat. PHG0313), 23.4 microg/mL adenine (Sigma-Aldrich, cat. A2786), 97.3 U/mL penicillin-streptomycin (Invitrogen, cat. 15140122), 1.9 mM L-glutamine (Invitrogen, cat. 25030081), and 9.7 microM Y-27632 dihydrochloride (Tocris Bioscience, Bristol, United Kingdom, cat. 1254). The PDCs were cultured in complete DMEM/F12 media without 10 microM Y-27632 dihydrochloride for at least two passages prior to the screen. The established cell lines NCI-H1341 and […] were cultured in DMEM/F-12, HEPES (Invitrogen, cat. 11330032), 5% defined fetal bovine serum (HyClone Laboratories Inc., cat. SH30070.03), ITS premix universal culture supplement [insulin (5 microg/mL), transferrin (5 microg/mL), and selenious acid (5 ng/mL)] […]
# 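Note: spheroids exposed to compounds for seven days.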
IC50 (curve of compound),Structure (SMILES),"viability, T/C (compound 0.0316 µM)","viability, T/C (compound 0.1 µM)","viability, T/C (compound 0.316 µM)","viability, T/C (compound 1 µM)","viability, T/C (compound 3.16 µM)","viability, T/C (compound 10 µM)",other results
5.92 nM and 6.34 nM and 5.04 nM,CC(C)CC(NC(=O)C(Cc1ccccc1)NC(=O)c1cnccn1)B(O)O (stereo not given),,,,,,,"viability, T/C (compound 0.000949 µM): 106% and 93.4% and 96.8%; viability, T/C (compound 0.003 µM): 94.4% and 94.7% and 83.5%; viability, T/C (compound 0.00949 µM): 19.2% and 26.2% and 9.11%; viability, T/C (compound 0.03 µM): 1.45% and 1.42% and 0.86%; viability, T/C (compound 0.0949 µM): 0.43% and 0.3% and 0.26%; viability, T/C (compound 0.3 µM): 0.27% and 0.21% and 0.15%"
> 10000 nM,CC(C)c1c(-c2ccccc2)nc2c(C#N)c[nH]n2c1=O,93.1% and 105% and 113%,103% and 96.8% and 99.5%,107% and 97.7% and 89%,95.2% and 98.4% and 113%,96.8% and 100% (2×),90.8% and 92% and 95.9%,
,CC(CO)NC(=O)c1cc(-c2ccc(Cl)cc2)nn(-c2cnn(C)c2)c1=O (stereo not given),,,96.5% [middle of 21 runs],98.8% [middle of 21 runs],,93.9% [middle of 19 runs],"IC50 (compound alone, run of 08/08/2022): > 10000 nM"
4590 nM and 4220 nM and 7200 nM,CC1(C)CCC(CN2CCN(c3ccc(C(=O)NS(=O)(=O)c4ccc(NCC5CCOCC5)c([N+](=O)[O-])c4)c(Oc4cnc5[nH]ccc5c4)c3)CC2)=C(c2ccc(Cl)cc2)C1,110% and 95.6% and 109%,109% and 91.1% and 99.6%,91.2% and 87.2% and 101%,94.4% and 79.7% and 98%,59.5% and 62.4% and 71.5%,24.6% and 16.2% and 41.4%,
34 nM and 36 nM and 45.5 nM,CC1COCCN1c1cc(-c2ccnn2C)c2ccnc(-c3ccn[nH]3)c2n1 (stereo not given),51.9% and 54.7% and 68%,10.5% and 10.1% and 13%,3.44% and 3.12% and 2.94%,2.43% and 2.64% and 1.91%,,,"viability, T/C (compound 0.00316 µM): 82.9% and 88.1% and 101%; viability, T/C (compound 0.01 µM): 87.9% and 89.4% and 87.5%"
2150 nM and 1640 nM and 1780 nM,CC1COCCN1c1cc(C2(S(C)(=N)=O)CC2)nc(-c2ccnc3[nH]ccc23)n1 (stereo not given),103% and 100% and 97%,107% and 96.4% and 98.6%,101% and 104% and 91.9%,86.5% and 73.7% and 82.7%,31.6% and 18.2% and 17.2%,5.26% and 5.01% and 5.03%,
> 3000 nM,CCN(c1cc(-c2ccc(CN3CCOCC3)cc2)cc(C(=O)NCc2c(C)cc(C)[nH]c2=O)c1C)C1CCOCC1,,,,,,,"viability, T/C (compound 0.00949 µM): 99.4% and 113% and 105%; viability, T/C (compound 0.03 µM): 116% and 94.8% and 94.7%; viability, T/C (compound 0.0949 µM): 93% and 86.7% and 98.8%; viability, T/C (compound 0.3 µM): 89.7% and 91.3% and 78.9%; viability, T/C (compound 0.949 µM): 86.7% and 77.8% and 76.2%; viability, T/C (compound 3 µM): 72.8% and 67.7% and 80.9%"
5.36 nM and 5.11 nM and 11.7 nM,CC[C@@]1(O)C(=O)OCc2c1cc1n(c2=O)Cc2cc3c(CN(C)C)c(O)ccc3nc2-1,6.59% and 7.5% and 7.58%,6.75% and 6.73% and 5.44%,,,,,"viability, T/C (compound 0.000316 µM): 105% and 92.5% and 101%; viability, T/C (compound 0.001 µM): 101% and 96.7% and 108%; viability, T/C (compound 0.00316 µM): 65.5% and 69.2% and 88%; viability, T/C (compound 0.01 µM): 31.4% and 22.4% and 59.5%"
< 0.949 nM,CCc1c2c(nc3ccc(O)cc13)-c1cc3c(c(=O)n1C2)COC(=O)[C@]3(O)CC,,,,,,,"viability, T/C (compound 0.000949 µM): 17.5% and 17.7% and 9.88%; viability, T/C (compound 0.003 µM): 9.21% and 7.45% and 8.07%; viability, T/C (compound 0.00949 µM): 6.22% and 5.99% and 5.4%; viability, T/C (compound 0.03 µM): 4.21% and 4.52% and 3.14%; viability, T/C (compound 0.0949 µM): 2.53% and 2.06% and 1.76%; viability, T/C (compound 0.3 µM): 1.46% and 1.11% and 1.27%"
613 nM and 774 nM and 399 nM,COc1cc(C2c3cc4c(cc3C(OC3OC5COC(C)OC5C(O)C3O)C3COC(=O)C23)OCO4)cc(OC)c1O (stereo not given),107% and 84.7% and 91.2%,96% and 92.5% and 87.4%,78.1% and 72.5% and 59.1%,29.6% and 44.8% and 14.3%,10.7% and 9.52% and 9.14%,8.19% and 5.47% and 7.82%,
,COc1cc(Nc2ncc3c(n2)-c2ccc(Cl)cc2C(c2c(F)cccc2OC)=NC3)ccc1C(=O)O,53.5% and 54% and 51.9%,43.2% and 52% and 43.9%,48.8% and 56.9% and 53%,42.7% and 45% and 41.8%,38.3% and 53.3% and 41.6%,37% (2×) and 39.3%,
8490 nM and 8770 nM and 8080 nM,COc1ccc([C@@H](O)c2cc(-c3ncnc4cc(N5CCOCC5)ccc34)c(F)cc2Cl)nn1,94.6% and 87.4% and 102%,106% and 92.4% and 99.4%,89.7% and 96.4% and 93.8%,92.1% and 84% and 75.6%,72.1% and 75.7% and 68.1%,46% and 46.8% and 45.7%,
